Measured values as given in patent US5871949A, “Method of quantitative assay for 1,5-anhydroglucitol and reagent for quantitative assay” (Daiichi Pure Chemicals Co., Ltd., priority 1996, dated 1999).

Legend:
Format in all cases: biochemical, Agrobacterium tumefaciens NT 1130
1,5-AG dehydrogenase [1] = experiment: Electron acceptor utilisation by 1,5-AG dehydrogenase (relative activity); details: 100 mM potassium phosphate buffer pH 8.0
Experimental: In 100 mM of the potassium phosphate buffer (pH 8.0), various electron acceptors were made present together with the present enzyme, where the activities on the respective electron acceptors were indicated as relative activities, which were as shown in Table 3.

1,5-AG dehydrogenase [2] = experiment: Substrate specificity of 1,5-AG dehydrogenase (relative activity on various sugars); details: substrate final concentration 5 mM; for Relative activity (substrate specificity): 1,5-AG = 100, nitrotetrazolium blue, pH 8.0, 37° C.
Experimental: The activity of the 1,5-AG dehydrogenase is measured in the following way. That is, 3.0 ml in total of an enzyme-containing solution comprised of 1.5 ml of 0.2M potassium phosphate buffer (pH 8.0), 0.3 ml of 0.25% by weight nitrotetrazolium blue, 0.3 ml of 2% by weight nonionic surface-active agent, 0.3 ml of an aqueous 50 mM 1,5-AG solution, 0.45 ml of water and 0.15 ml of an enzyme solution is reacted at 37° C., and a change in absorbance (ΔmOD/min) at 540 nm is measured. The molecular extinction coefficient (or molar absorption coefficient) of a formazan dye formed under such conditions is given as 16.7×10^3 and the quantity of the enzyme capable of forming 1 μmol of formazan in one minute is regarded as one unit, where the activity of the 1,5-AG dehydrogenase is determined according to the following expression; [formula] (1) Activity:
Relative activities (substrate specificity) of instances where the 1,5-AG was replaced with various sugar solutions (all having a final concentration of 5 mM) in the above method of measuring the enzymatic activity are shown in Table 2.

1,5-AG dehydrogenase [3] = experiment: Km value by Lineweaver-Burk plot; details: read-out: Km value with respect to 1,5-AG
Experimental: The Km value of the present enzyme with respect to 1,5-AG was determined by the Lineweaver-Burk plot to reveal that it was about 0.5 mM.

## NC(=O)c1ccc[n+]([C@@H]2O[C@H](COP(=O)([O-])OP(=O)(O)OC[C@H]3O[C@@H](n4cnc5c(N)ncnc54)[C@H](OP(=O)(O)O)[C@@H]3O)[C@@H](O)[C@H]2O)c1 [NADP]
1,5-AG dehydrogenase [1]; acceptor 1.0 mM
  Relative activity (electron acceptor): 0%

## O=C1C(Cl)=CC(=Nc2ccc(O)cc2)C=C1Cl [2,6-Dichlorophenolindophenol]
1,5-AG dehydrogenase [1]; acceptor 0.1 mM
  Relative activity (electron acceptor): 100%

## OC[C@@H](O)[C@@H](O)[C@H](O)[C@@H](O)CO [Glucitol]
1,5-AG dehydrogenase [2]
  Relative activity (substrate specificity): 0

## O[C@H]1[C@H](O)[C@@H](O)[C@H](O)[C@@H](O)[C@H]1O [Myoinocitol]
1,5-AG dehydrogenase [2]
  Relative activity (substrate specificity): 0

## O=C[C@H](O)[C@@H](O)[C@@H](O)[C@H](O)CO [D-galactose]
1,5-AG dehydrogenase [2]
  Relative activity (substrate specificity): 0

## O=C(CO)[C@@H](O)[C@H](O)[C@@H](O)CO [L-sorbose]
1,5-AG dehydrogenase [2]
  Action of the enzyme on the substrate (in words): weakly acted
  Relative activity (substrate specificity): 25

## OC[C@H]1O[C@H](O[C@H]2[C@H](O)[C@@H](O)C(O)O[C@@H]2CO)[C@H](O)[C@@H](O)[C@@H]1O (mixture of isomers) [Maltose]
1,5-AG dehydrogenase [2]
  Relative activity (substrate specificity): 0

## O=C(CO)[C@@H](O)[C@H](O)[C@H](O)CO [D-fructose]
1,5-AG dehydrogenase [2]
  Relative activity (substrate specificity): 2

## COc1cc(-c2ccc(-[n+]3nc(-c4ccccc4)nn3-c3ccc([N+](=O)[O-])cc3)c(OC)c2)ccc1-[n+]1nc(-c2ccccc2)nn1-c1ccc([N+](=O)[O-])cc1 [Nitrotetrazolium blue]
1,5-AG dehydrogenase [1]; acceptor 1.0 mM
  Relative activity (electron acceptor): 53%

## O=O [Oxygen]
1,5-AG dehydrogenase [1]; dissolved oxygen
  Relative activity (electron acceptor): 0%

## OC[C@H]1OC[C@H](O)[C@@H](O)[C@@H]1O [1,5-AG, 1,5-anhydroglucitol]
1,5-AG dehydrogenase [3]
  Km: ~500 µM
1,5-AG dehydrogenase [2]
  Action of the enzyme on the substrate (in words): strongly acted
  Relative activity (substrate specificity): 100

## O=C[C@H](O)[C@@H](O)[C@H](O)[C@H](O)CO [D-glucose]
1,5-AG dehydrogenase [2]
  Action of the enzyme on the substrate (in words): slightly acted
  Relative activity (substrate specificity): 11

## NC(=O)c1ccc[n+]([C@@H]2O[C@H](COP(=O)([O-])OP(=O)(O)OC[C@H]3O[C@@H](n4cnc5c(N)ncnc54)[C@H](O)[C@@H]3O)[C@@H](O)[C@H]2O)c1 [NAD, nicotinamide adenine dinucleotide]
1,5-AG dehydrogenase [1]; acceptor 1.0 mM
  Relative activity (electron acceptor): 0%
